According to US10273290B2, “Hydrocarbon double-stapled stabilized HIV-1 GP41 heptad repeat domain peptides” (DANA-FARBER CANCER INSTITUTE, INC., priority 2009, dated 2019):
Bridge positions count the residues as written; N and C are the ends. Square brackets hold non-standard residues; d marks the D form. Ends that are not written are not given here. Peptide text beside a SMILES is read from it. * marks the point of attachment. FITC = O=C1OC2(c3ccc(O)cc3Oc3cc(O)ccc32)c2ccc(NC(=S)*)cc21; S5 = C=CCCC[C@](C)(N)C(=O)O; Nle = CCCC[C@H](N)C(=O)O

Experiments:
[1] = Circular dichroism, α-helical content; format: physicochemical
Description: The α-helicity of stapled modified polypeptides was compared to their unmodified counterparts by circular dichroism. CD spectra were obtained on an Aviv spectropolarimeter at 20° C. using the following standard measurement parameters: wavelength, 190-260 nm; step resolution, 0.5 nm; speed, 20 nm/sec; accumulations, 10; response, 1 sec; bandwidth, 1 nm; path length, 0.1 cm. The α-helical content of each peptide was calculated by dividing the mean residue ellipticity [θ]222obs, by the reported [θ]222obs for a model helical peptide (Forood, B., E. J. Feliciano, and K. P. Nambiar, PNAS, 1993. 90(3): p. 838-842; J. Martin Scholtz, Biopolymers, 1991. 31(13): p. 1463-1470; Lawless, M. K., et al., Biochemistry, 1996. 35(42): p. 13697-13708) or using, for example, the Aviv machine using CDNN software developed by Brohm in order to deduce five different secondary structure fractions (helix, parallel and antiparallel beta-sheet, beta-turn and random coil). Protein Engineering, 1992. 5(3); p. 191-195
In order to evaluate secondary structure improvements of hydrocarbon-stapled peptides, we record and analyze circular dichroism (CD) spectra on an Aviv Biomedical spectrometer (model 410), as described above. […] The CD spectra are initially plotted as wavelength versus millidegree. […] After conversion to mean residue ellipticity, percent α-helicity can be calculated using the equation, % helicity=100×[θ]222/^max[θ]222, where ^max[θ]222=−40,000×[1−(2.5/number of amino acid residues)]. We also employ the curve-fitting CDDN software that is bundled with our spectrometer to calculate the relative fractions of secondary structure including α-helix, parallel and antiparallel β-sheet, β-turn and random coil.

chymotrypsin = molecular target: T1, chymotrypsin (Bos taurus, UniProt P00766); experiment: Protease resistance assay, chymotrypsin (LC/MS); format: in vitro ADME; details: pH 7.4, 0.5 chymotrypsin, peptide 25 μM
T1 construct: purchased Sigma

Chymotrypsin, pH 7 = experiment: Chymotrypsin, pH 7
Text: Table printed on a drawing sheet, FIG. 17D
Title: Chymotrypsin, pH 7
First reader's note: The table also serves as the legend of the plot below it (fraction intact over time); the plot symbols before the compound names are left out.

[2] = test system: doubly-mutant HR1 peptides V38A/N42T and V38E/N42S; experiment: Native PAGE complex assembly with mutant HR1 peptides; format: binding, HIV-1; details: for higher-order complex formation with doubly-mutant HR1 peptides: FITC-labeled peptides, native PAGE
Text: We first performed a native PAGE-based assay designed to monitor the capacity of FITC-HR2 and mutant HR1 peptides to interact to form a stable higher-order complex (He, Y., et al. PNAS (2008)).

pepsin = experiment: Protease resistance assay, pepsin at pH 2; details: pepsin at 0.5 ng/μL, peptide 25 μM, acidic conditions
Description: The DAD signal was set to 280 nm with an 8 nm bandwidth and MSD set to scan mode with one channel at (M+2H)/2, +1 mass units and the other at (M+3H)/3, +1 mass units. […] Reaction samples were composed of 5 μL peptide in DMSO (1 mM stock) and 195 μL of buffer consisting of 50 mM phosphate buffer pH 7.4 containing 2 mM CaCl2. Upon injection of the 0 hr time point sample, 2 μL of 50 ng/μL chymotrypsin (Sigma) was added and the amount of intact peptide quantitated by serial injection over time. An internal control of acetylated tryptophan carboxamide at a concentration of 100 μM was used to normalize each MSD data point. A plot of MSD area versus time yielded an exponential decay curve and half-lives were determined by nonlinear regression analysis using Prism software (GraphPad). The assay was also performed using trypsin and pepsin in their appropriate buffer conditions.

**Q.** For `CCCC[C@H](NC(C)=O)C(=O)N[C@H](C(=O)N[C@@H](Cc1c[nH]c2ccccc12)C(=O)N[C@@H](CCCC)C(=O)N[C@@H](CCC(=O)O)C(=O)N[C@@H](Cc1c[nH]c2ccccc12)C(=O)N[C@@H](CC(=O)O)C(=O)N[C@@H](CCCNC(=N)N)C(=O)N[C@@H](CCC(=O)O)C(=O)N[C@H](C(=O)N[C@@]1(C)CCCC=CCCC[C@@](C)(C(=O)N[C@@H](CC(C)C)C(=O)N[C@H](C(=O)N[C@@H](Cc2c[nH]cn2)C(=O)N[C@@H](CO)C(=O)N[C@@H](CC(C)C)C(=O)N[C@H](C(=O)N[C@@H](CCC(=O)O)C(=O)N[C@@H](CCC(=O)O)C(=O)N[C@@H](CO)C(=O)N[C@@H](CCC(N)=O)C(=O)N[C@@H](CC(N)=O)C(=O)N[C@@H](CCC(N)=O)C(=O)N[C@@]2(C)CCCC=CCCC[C@@](C)(C(=O)N[C@@H](CCC(N)=O)C(=O)N[C@@H](CCC(=O)O)C(=O)N[C@@H](CC(C)C)C(=O)N[C@@H](CC(C)C)C(=O)N[C@@H](CCC(=O)O)C(N)=O)NC(=O)[C@H](CC(N)=O)NC(=O)[C@H](CCCCN)NC(=O)[C@H](CCC(=O)O)NC2=O)[C@@H](C)CC)[C@@H](C)CC)NC(=O)[C@H]([C@@H](C)O)NC(=O)[C@H](Cc2ccc(O)cc2)NC(=O)[C@H](CC(N)=O)NC1=O)[C@@H](C)CC)[C@@H](C)O` [SAH-gp41(626-662)(C, F)] (Ac-[Nle]TW[Nle]EWDREI[S5]NYT[S5]LIHSLIEESQNQ[S5]EKN[S5]QELLE-NH2; staple 11-15, 28-32), which “% helicity at pH 2” value [1] is on record?
**A.** 55%

**Q.** And the “% helicity at pH 7” value [1]?
**A.** 41%

**Q.** What about the Half-Life (chymotrypsin) of the same molecule?
**A.** 8.23 h

**Q.** Which Half-Life (chymotrypsin) does the source give for `CCCC[C@H](NC(C)=O)C(=O)N[C@H](C(=O)N[C@@H](Cc1c[nH]c2ccccc12)C(=O)N[C@@H](CCCC)C(=O)N[C@@H](CCC(=O)O)C(=O)N[C@@H](Cc1c[nH]c2ccccc12)C(=O)N[C@@H](CC(=O)O)C(=O)N[C@@H](CCCNC(=N)N)C(=O)N[C@@H](CCC(=O)O)C(=O)N[C@H](C(=O)N[C@@H](CC(N)=O)C(=O)N[C@@H](CC(N)=O)C(=O)N[C@@H](Cc1ccc(O)cc1)C(=O)N[C@H](C(=O)N[C@@]1(C)CCCC=CCCC[C@@](C)(C(=O)N[C@@H](CC(C)C)C(=O)N[C@H](C(=O)N[C@@H](CCC(=O)O)C(=O)N[C@@H](CCC(=O)O)C(=O)N[C@@H](CO)C(=O)N[C@@H](CCC(N)=O)C(=O)N[C@@H](CC(N)=O)C(=O)N[C@@H](CCC(N)=O)C(=O)N[C@@]2(C)CCCC=CCCC[C@@](C)(C(=O)N[C@@H](CCC(N)=O)C(=O)N[C@@H](CCC(=O)O)C(=O)N[C@@H](CC(C)C)C(=O)N[C@@H](CC(C)C)C(=O)N[C@@H](CCC(=O)O)C(N)=O)NC(=O)[C@H](CC(N)=O)NC(=O)[C@H](CCCCN)NC(=O)[C@H](CCC(=O)O)NC2=O)[C@@H](C)CC)NC(=O)[C@H](Cc2c[nH]cn2)NC(=O)[C@H]([C@@H](C)CC)NC(=O)[C@H](CC(C)C)NC1=O)[C@@H](C)O)[C@@H](C)CC)[C@@H](C)O` [SAH-gp41(626-662)(D, F)] (Ac-[Nle]TW[Nle]EWDREINNYT[S5]LIH[S5]LIEESQNQ[S5]EKN[S5]QELLE-NH2; staple 15-19, 28-32) here?
**A.** 3.02 h

**Q.** Which “Half-Life” value (Chymotrypsin, pH 7) does the source give for Enfuvirtide here?
**A.** 0.2 h

**Q.** For “FITC-SAH-gp41(626-662)(A, F): FITC-labeled doubly stapled SAH-gp41(626-662)(A, F) ({FITC}-LTWAEWDAEINNYTSLIHSLIEESQNQAEKNAQELLE; not fully specified (bridges); also: doubly stapled, positions not given here)”, which “higher-order complex formation with doubly-mutant HR1 peptides” value (shortened to “higher-order complex formation”) [2] is on record?
**A.** formed a higher-order complex

**Q.** And the “fold enhancement in binding activity” value ([2]; compared to FITC-T649v, densitometric analyses)?
**A.** up to 2 fold

**Q.** Which “higher-order complex formation” value [2] does the source give for “FITC-T649v: FITC-labeled T649v ({FITC}-LTWLEWDREINNYTSLIHSLIEESQNQQEKNEQELLE) [reference compound]” here?
**A.** formed a higher-order complex

**Q.** Which “higher-order complex formation” value [2] does the source give for “FITC-labeled enfuvirtide: FITC-labeled enfuvirtide [reference compound]” here?
**A.** no interactions

**Q.** What does the source list for enfuvirtide [listing 1 of 5 here]?
**A.** % helicity at pH 2 [1]: 79%; % helicity at pH 7 [1]: 23%; Half-life (minutes), pepsin (pepsin): 3 min; Half-Life (Chymotrypsin, pH 7): 0.417 h

**Q.** What does the source list for enfuvirtide [listing 2 of 5 here]?
**A.** % helicity at pH 2 [1]: 57%; % helicity at pH 7 [1]: 30%

**Q.** With enfuvirtide [listing 3 of 5 here] as the molecule, how does the “Half-life (minutes), pepsin” value (pepsin) read?
**A.** 920 min

**Q.** With enfuvirtide [listing 4 of 5 here] as the molecule, how does the “% helicity at pH 2” value [1] read?
**A.** 61%

**Q.** And the “% helicity at pH 7” value [1]?
**A.** 48%

**Q.** And the “Half-life (minutes), pepsin” value (pepsin)?
**A.** 227 min

**Q.** What about the “Half-Life” value (Chymotrypsin, pH 7) of the same molecule?
**A.** 1.67 h

**Q.** Which “% helicity at pH 2” value [1] does the source give for enfuvirtide [listing 5 of 5 here] here?
**A.** 66%

**Q.** What about the “% helicity at pH 7” value [1] of the same molecule?
**A.** 26%

**Q.** With “unstapled counterpart: unstapled 20-mer truncation of T649v, residues 626-645 ([Nle]TW[Nle]EWDREINNYTSLIHSL) [reference compound]” as the molecule, how does the α-helical content ([1]; comparative CD spectra, 20-mer residues 626-645) read?
**A.** 20%
